The values that follow are results of earlier work, collected in PubChem BioAssay AID1259410 (Chemical Carcinogenesis Research Information System (CCRIS), 2018).

Each structure is given as a SMILES string.

This data set concerns rodent tumor promotion studies, tumor incidence. Kind of data set: CCRIS tumor promotion studies.

Turning to `Clc1cccc(-c2ccc(Cl)c(Cl)c2Cl)c1Cl`, the outcome is “lung: tumor” (Carcinogen: 4-(METHYLNITROSAMINO)-1-(3-PYRIDYL)-1-BUTANONE, 64091-91-4, Doses [Carcinogen]: 50 MG/KG ON D 4 OF LIFE, Doses [Promoter]: 500 MG/KG ONCE ON D 56 OF LIFE (STUDY DURATION: 52 WK), Route [Carcinogen]: INTRAPERITONEAL, Route [Promoter]: INTRAGASTRIC, Species: MOUSE, Strain/Sex: SWISS/FEMALE); “liver: hepatocellular adenoma or carcinoma” (Carcinogen: 4-(METHYLNITROSAMINO)-1-(3-PYRIDYL)-1-BUTANONE, 64091-91-4, Doses [Carcinogen]: 100 MG/KG (0.5 MMOL) IN 0.9% STERILE SALINE ON DAYS 15, 17, AND 19 OF GESTATION, Doses [Promoter]: 0, 500 MG/KG IN OLIVE OIL ON POSTNATAL DAY 56 (STUDY DURATION: 72 WK), Route [Carcinogen]: TRANSPLACENTAL, Route [Promoter]: GAVAGE, Species: MOUSE, Strain/Sex: SWISS/MALE); “lung: tumor” (Carcinogen: 4-(METHYLNITROSAMINO)-1-(3-PYRIDYL)-1-BUTANONE, 64091-91-4, Doses [Carcinogen]: 100 MG/KG IN 0.9% SALINE ON GESTATION DAYS 15, 17 AND 19, Doses [Promoter]: 500 MG/KG ONCE ON D 56 OF LIFE TO OFFSPRING OF CARCINOGEN-TREATED MOTHERS (STUDY DURATION: 52 WK), Route [Carcinogen]: INTRAPERITONEAL, Route [Promoter]: INTRAGASTRIC, Species: MOUSE, Strain/Sex: SWISS/MALE); “liver: tumor” (Carcinogen: DIETHYLNITROSAMINE, 55-18-5, Doses [Carcinogen]: 90 MG/KG BW ONCE, Doses [Promoter]: 0, 100 PPM IN DIET FOR 20 WK BEGINNING 3 WK POST CARCINOGEN DOSE (STUDY DURATION: 47 WK), Route [Carcinogen]: INTRAPERITONEAL, Route [Promoter]: ORAL, Species: MOUSE, Strain/Sex: C57BL/MALE); “liver: hepatocellular carcinoma” (Carcinogen: DIETHYLNITROSAMINE, 55-18-5, Doses [Carcinogen]: 1100 PPM IN DIET FOR 1 YR, Doses [Promoter]: 0, 100 PPM IN DIET FOR 1 YR (STUDY DURATION: 1 YR), Route [Carcinogen]: ORAL, Route [Promoter]: ORAL, Species: FISH, Strain/Sex: RAINBOW TROUT/MALE, FEMALE); “thyroid: carcinoma” (Carcinogen: DIISOPROPANOLNITROSAMINE [53609-64-6], Doses [Carcinogen]: SINGLE DOSE OF 2.5 G/KG BW, Doses [Promoter]: 100 PPM IN DIET BEGINNING 1 WK AFTER DIPN TREATMENT FOR 19 WKS (STUDY DURATION: 20 WKS), Route [Carcinogen]: SUBCUTANEOUS INJECTION, Route [Promoter]: DIET, Species: RAT, Strain/Sex: SPRAGUE-DAWLEY/MALE). In addition, the outcome is on record as “liver: hepatocellular adenoma, hepatocellular carcinoma” (Carcinogen: N-NITROSODIETHYLAMINE, 55-18-5, Doses [Carcinogen]: 90 MG/KG BW ONCE, Doses [Promoter]: 0, 175, 350 PPM IN DIET FOR 53 WK BEGINNING 2 WK POST CARCINOGEN DOSE (STUDY DURATION: 55 WK), Doses [Promoter]: 0, 175, 350 PPM IN DIET FOR 53 WK BEGINNING 2 WK POST CARCINOGEN DOSE (STUDY DURATION: 55 WK), Route [Carcinogen]: INTRAPERITONEAL, Route [Promoter]: ORAL, Species: MOUSE, Strain/Sex: D2B6F1/MALE); “lung: tumor” (Carcinogen: N-NITROSODIMETHYLAMINE, 62-75-9, Doses [Carcinogen]: 5 MG/KG IN SALINE ONCE AT 4 DAYS OF AGE, Doses [Promoter]: 0, 250 MG/KG IN OLIVE OIL ONCE AT 8 DAYS OF AGE (STUDY DURATION: 28 WK), Route [Carcinogen]: INTRAPERITONEAL, Route [Promoter]: GAVAGE, Species: MOUSE, Strain/Sex: SWISS/MALE); “lung: tumor; liver: tumor” (Carcinogen: N-NITROSODIMETHYLAMINE, 62-75-9, Doses [Carcinogen]: 5 MG/KG IN SALINE ONCE AT 4 DAYS OF AGE, Doses [Promoter]: 0, 250 MG/KG IN OLIVE OIL ONCE AT 8 DAYS OF AGE (STUDY DURATION: 52 WK), Route [Carcinogen]: INTRAPERITONEAL, Route [Promoter]: GAVAGE, Species: MOUSE, Strain/Sex: SWISS/MALE); “lung: tumor; liver: tumor” (Carcinogen: N-NITROSODIMETHYLAMINE, 62-75-9, Doses [Carcinogen]: 5 MG/KG ON D 4 OF LIFE, Doses [Promoter]: 500 MG/KG ONCE ON D 56 OF LIFE (STUDY DURATION: 52 WK), Route [Carcinogen]: INTRAPERITONEAL, Route [Promoter]: INTRAGASTRIC, Species: MOUSE, Strain/Sex: SWISS/MALE); “lung: tumor” (Carcinogen: N-NITROSODIMETHYLAMINE, 62-75-9, Doses [Carcinogen]: 10 MG/KG IN SALINE ON GESTATION D 19, Doses [Promoter]: 500 MG/KG ONCE ON D 56 OF LIFE TO OFFSPRING OF CARCINOGEN-TREATED MOTHERS (STUDY DURATION: 52 WK), Route [Carcinogen]: INTRAPERITONEAL, Route [Promoter]: INTRAGASTRIC, Species: MOUSE, Strain/Sex: SWISS/MALE).
With `O=C1c2ccccc2C(=O)c2c(O)cccc21`, the outcome (Carcinogen: METHYLAZOXYMETHANOL ACETATE, 592-62-1, Doses [Carcinogen]: 25 MG/KG BW 1/WK FOR 2 WK, Doses [Promoter]: 0, 1% IN DIET FOR 42 WK BEGINNING 1 WK POST CARCINOGEN TREATMENT (STUDY DURATION: 44 WK), Route [Carcinogen]: INTRAPERITONEAL, Route [Promoter]: ORAL, Species: RAT, Strain/Sex: ACI/FEMALE) is “intestine: adenoma” and the outcome (Carcinogen: METHYLAZOXYMETHANOL ACETATE, 592-62-1, Doses [Carcinogen]: 25 MG/KG BW 1/WK FOR 2 WK, Doses [Promoter]: 0, 1% IN DIET FOR 42 WK BEGINNING 1 WK POST CARCINOGEN TREATMENT (STUDY DURATION: 44 WK), Route [Carcinogen]: INTRAPERITONEAL, Route [Promoter]: ORAL, Species: RAT, Strain/Sex: ACI/MALE) is on record as “intestine: adenoma, adenocarcinoma”.
For `C1COCCO1`, the outcome (Carcinogen: 7,12-DIMETHYLBENZ(A)ANTHRACENE, Doses [Carcinogen]: TOP, Route [Carcinogen]: DERMAL, Route [Promoter]: DERMAL, Species: MOUSE, Strain/Sex: MALE,FEMALE) is given as “integumentary system (skin)”.
As for `CC1=C(/C=C/C(C)=C/C=C/C(C)=C\C(=O)O)C(C)(C)CCC1`, for the setting “Carcinogen: ETHYLNITROSOUREA [759-73-9], Doses [Carcinogen]: 120 UG/KG ONCE, Doses [Promoter]: 200 MG/KG FEED FOR 60 WK (STUDY DURATION: 60 WK), Route [Carcinogen]: IP INJECTION, Route [Promoter]: DIET, Species: MOUSE, Strain/Sex: B6C3F1/MALE (?,44)/(?,35)”, the outcome is given as “liver: hepatocellular carcinoma”.
On to `CC(=O)Oc1ccc(C(c2ccc(OC(C)=O)cc2)c2ccccn2)cc1`, for which the outcome (Carcinogen: AZOXYMETHANE, 25843-45-2, Doses [Carcinogen]: 15 MG/KG TWICE ON DAYS 1 AND 5 OF TREATMENT, Doses [Promoter]: 0, 4.3, 43 MG/KG/D 6 D/WK FOR 13 WK (STUDY DURATION: 13 WK), Doses [Promoter]: 0, 4.3, 43 MG/KG/D 6 D/WK FOR 13 WK (STUDY DURATION: 13 WK), Route [Carcinogen]: INTRAPERITONEAL, Route [Promoter]: GAVAGE, Species: RAT, Strain/Sex: WISTAR/MALE) was “colon: adenocarcinoma”.
For the compound `Nc1ncn[nH]1`, where the note is “Carcinogen: N-BIS(2-HYDROXYPROPYL)NITROSAMINE, Doses [Carcinogen]: 70 MG/100 G BW 1/WK FOR 4 WK, Doses [Promoter]: 2000 PPM IN DIET FOR 12 WK BEGINNING 1 WK AFTER INITIATION, Route [Carcinogen]: SUBCUTANEOUS, Route [Promoter]: ORAL, Species: RAT, Strain/Sex: WISTAR/MALE”, the outcome is “thyroid gland: adenoma, carcinoma”.
`O=C1O[C@H]([C@H](O)CO)C(O)=C1O`: the outcome by setting is: (Carcinogen: N-BUTYL-N-(4-HYDROXYBUTYL)NITROSAMINE, 3817-11-6, Doses [Carcinogen]: 0.05% IN DRINKING WATER FOR 4 WK, Doses [Promoter]: 0, 5% IN DIET FOR 32 WK (STUDY DURATION: 36 WK), Route [Carcinogen]: ORAL, Route [Promoter]: ORAL, Species: RAT, Strain/Sex: F344/MALE) “urinary bladder: papilloma, carcinoma”; (Carcinogen: N-BUTYL-N-(4-HYDROXYBUTYL)NITROSAMINE, 3817-11-6, Doses [Carcinogen]: 0.05% IN DRINKING WATER FOR 4 WK, Doses [Promoter]: 0, 5% IN DIET FOR 32 WK BEGINNING POST CARCINOGEN (STUDY DURATION: 36 WK), Route [Carcinogen]: ORAL, Route [Promoter]: ORAL, Species: RAT, Strain/Sex: F344/MALE) “bladder: papilloma, carcinoma”.
For `C=CC(N)=O`, where the note is “Carcinogen: METHYLNITROSOUREA [684-93-5], Doses [Carcinogen]: 50 MG/KG BW ONCE, Doses [Promoter]: 0, 20, 40 PPM IN DRINKING WATER AFTER CARCINOGEN ADMINISTRATION (STUDY DURATION: 30 WK), Doses [Promoter]: 0, 20, 40 PPM IN DRINKING WATER AFTER CARCINOGEN ADMINISTRATION (STUDY DURATION: 30 WK), Route [Carcinogen]: IP INJECTION, Route [Promoter]: DRINKING WATER, Species: RAT, Strain/Sex: SPRAGUE-DAWLEY/FEMALE (20/GROUP)”, the outcome is reported as “mammary gland: adenocarcinoma (significant increase in tumor incidence at 40 ppm”.
As to `CCCCCCCCCCCCCCCCCC(=O)OCCOC[C@@H](OCCO)[C@H]1OC[C@@H](OCCO)[C@@H]1OCCO`, the outcome (Carcinogen: 7,12-DIMETHYLBENZ(A)ANTHRACENE, Doses [Carcinogen]: TOP, Route [Carcinogen]: DERMAL, Route [Promoter]: DERMAL, Species: MOUSE, Strain/Sex: MALE) was “integumentary system (skin)”.
With `Oc1cc(Cl)c(Cl)cc1Cl`, the outcome (Carcinogen: 7,12-DIMETHYLBENZ(A)ANTHRACENE, Doses [Carcinogen]: TOP, Route [Carcinogen]: DERMAL, Route [Promoter]: DERMAL, Species: MOUSE, Strain/Sex: FEMALE) is listed as “integumentary system (skin)”.
